Data as given in the OPERA property sets (Mansouri et al. 2018).

details: not given

Row | Compound | melting point [°C] | log10 Koc (L/kg) | log10 vapour pressure (mmHg) | ready biodegradability | boiling point [°C] | log10 Koa | log10 Henry constant (atm·m³/mol)
1 | Cc1nc(C(F)(F)F)c(C(O)=Nc2c(Br)cc(OC(F)(F)F)cc2Br)s1 | 178 | – | – | – | – | – | –
2 | CCNc1nc(NCC)nc(OC)n1 | – | 2.34 | -5.62 | – | – | – | –
3 | CCCCCCCC/C=C\CCCCCCCC(=O)OCC(O)CO (configuration not stated) | 35 | – | – | readily biodegradable | – | – | –
4 | CCCCNCC(O)c1ccc(O)cc1 (configuration not stated) | 124 | – | – | – | – | – | –
5 | ClCCc1ccccc1 | – | – | – | not readily biodegradable | – | – | –
6 | ClC(Cl)(Br)C(Cl)(Cl)Br | 202 | – | – | – | – | – | –
7 | CCN1CN(CC)CN(CC)C1 | 70 | – | – | readily biodegradable | 208 | – | –
8 | C[Si](C)(C)CCCO | – | – | – | – | 141 | – | –
9 | FC(F)(F)c1ccc(Cl)nc1 | 33 | – | – | – | 153 | – | –
10 | CCCCC#CCCCCC | -74.1 | – | – | – | 198 | – | –
11 | CNc1ccc(O)c2c1C(=O)c1c(O)ccc(NC)c1C2=O | 217 | – | – | – | – | – | –
12 | O=CC1CCCO1 (configuration not stated) | – | – | – | – | 142 | – | –
13 | CN(CCCC(=O)c1cccnc1)N=O | 64 | – | – | – | – | – | –
14 | CC(Cl)(Cl)C(=O)OCCOc1cc(Cl)c(Cl)cc1Cl | 49.5 | – | – | – | – | – | –
15 | CN[C@@H](C)[C@H](O)c1ccccc1 | – | – | – | – | 255 | – | –
16 | Oc1c(Cl)cc(Cl)c(Cl)c1Cc1c(O)c(Cl)cc(Cl)c1Cl | 166 | – | – | not readily biodegradable | 479 | – | –
17 | C[C@@H]1O[C@@H]1P(=O)(O)O | 94 | – | – | – | – | – | –
18 | CCOC(=O)c1ccc(-c2ccc(C(=O)OCC)c(C(=O)OCC)c2)cc1C(=O)OCC | – | – | – | readily biodegradable | – | – | –
19 | COC(=O)C(F)(F)C(F)(F)C(F)(F)F | -86 | – | – | – | 80 | – | –
20 | C=COCCOCCOC=C | – | – | -1.64 | – | 198 | – | –
21 | N#Cc1cccc([N+](=O)[O-])c1 | 116 | – | – | – | – | – | –

Row | Compound | melting point [°C] | log10 Koc (L/kg) | log10 vapour pressure (mmHg) | ready biodegradability | boiling point [°C] | log10 Koa | log10 Henry constant (atm·m³/mol)
22 | CCCC(C(C)=O)C(=O)OCC (configuration not stated) | – | – | – | – | 224 | – | –
23 | O=[N+]([O-])CBr | – | – | 0.491 | – | 149 | – | –
24 | N#Cc1ccc(N)c2ccccc12 | 176 | – | – | – | – | – | –
25 | CCOC(=O)C1(c2cccc(O)c2)CCN(C)CC1 | 110 | – | – | – | – | – | –
26 | CC(=O)C(Cl)Cl | – | – | 1.43 | – | 120 | – | –
27 | CCCCCCCCCBr | – | – | -0.921 | – | – | – | –
28 | O=c1oc(=O)c2cc3c(=O)oc(=O)c3cc12 | – | – | – | readily biodegradable | – | – | –
29 | CCCCCCCCCCCCCCCCCC(=O)OC1CCCCC1 | 44 | – | – | – | – | – | –
30 | Cc1ccc(N(CC2=NCCN2)c2cccc(O)c2)cc1 | 174 | – | – | – | – | – | –
31 | N#CCCS(=O)(=O)O.[Na+] | 244 | – | – | – | – | – | –
32 | C#CC(C)O (configuration not stated) | -3 | – | – | – | 106 | – | –
33 | ClC1=C(Cl)C2(Cl)[C@@H]3C[C@@H](Cl)[C@@H](Cl)[C@@H]3C1(Cl)C2(Cl)Cl (mixture of isomers) | – | – | – | – | – | 8.89 | –
34 | Nc1c(Br)cc([N+](=O)[O-])cc1Br | 207 | – | – | – | – | – | –
35 | O=[N+]([O-])c1cc([N+](=O)[O-])c2ccccc2c1 | 148 | – | – | – | – | – | –
36 | CCCCCCCCCCCCCCOC(=O)CCCCCCCCCCCCC | – | – | – | readily biodegradable | – | – | –
37 | Cc1ccno1 | – | – | – | – | 122 | – | –
38 | C=CC(=O)OCCC | – | – | 1.16 | – | – | – | –
39 | CCCCc1ccc(N)cc1 | – | – | – | – | 261 | – | –
40 | CC(C)CCC[C@@H](C)[C@H]1CC[C@H]2[C@@H]3CC=C4C=CCC[C@]4(C)[C@H]3CC[C@]12C | 80 | – | – | – | – | – | –
41 | C=CC(=O)Cl | – | – | – | – | 75.5 | – | –
42 | OC[C@H]1O[C@H](OC[C@H]2O[C@H](O)[C@H](O)[C@@H](O)[C@@H]2O)[C@H](O)[C@@H](O)[C@H]1O | 86 | – | – | – | – | – | –

Row | Compound | melting point [°C] | log10 Koc (L/kg) | log10 vapour pressure (mmHg) | ready biodegradability | boiling point [°C] | log10 Koa | log10 Henry constant (atm·m³/mol)
43 | N#CSc1ccccc1 | – | – | – | – | 232 | – | –
44 | O=C(/C=C/C=C/c1ccc2c(c1)OCO2)N1CCCCC1 | 132 | – | – | – | – | – | –
45 | Cc1cccc(O)c1O | 68 | – | – | – | 241 | – | –
46 | NC(=O)CCC/N=C(\c1ccc(Cl)cc1)c1cc(F)ccc1O | 134 | – | – | – | – | – | –
47 | CC(CCl)OP(=O)(OC(C)CCl)OC(C)CCl (configuration not stated) | -40 | – | – | not readily biodegradable | – | – | –
48 | CCCCCC(C)(C)O | -50.4 | – | – | – | 156 | – | –
49 | Clc1ccc(Cl)c(-c2cc(Cl)c(Cl)c(Cl)c2Cl)c1 | – | – | – | – | – | – | -4.64
50 | Oc1cc(Cl)cc(Br)c1 | 70 | – | – | – | 256 | – | –
51 | c1ccncc1 | -41.6 | 1.6 | 1.32 | readily biodegradable | 115 | – | -4.96
52 | CCOC(=O)CCCOc1ccc(Cl)cc1C | -1 | – | -5.84 | – | – | – | –
53 | FC(F)(F)CCl | -106 | – | – | – | 6.1 | – | –
54 | O=C(c1ccccc1)c1ccccc1O | 40 | – | – | – | – | – | –
55 | BrC(c1ccccc1)c1ccccc1 | 45 | – | – | – | – | – | –
56 | Cc1cc(C)nc(Nc2ccccc2)n1 | 96.3 | – | -4.78 | – | – | – | –
57 | CCCc1ccc(C)cc1 | -63.6 | – | 0.043 | – | 183 | – | –
58 | C=CCOC(=O)C(=O)OCC=C | – | – | – | – | 217 | – | –
59 | CCCC(C)C(O)CC (configuration not stated) | -123 | – | – | – | 170 | – | –
60 | C=CP(=O)(O)O | 43 | – | – | – | – | – | –
61 | Cc1cccc(C=O)c1 | – | – | – | – | 199 | – | –
62 | CC[C@H](C)C(C)(C)C | -112 | – | 1.51 | – | 110 | – | –
63 | O=c1n(Cl)c(=O)n(Cl)c(=O)n1Cl | – | – | – | not readily biodegradable | – | – | –

same assay, conditions: fish

Row | Compound | log10 BCF | log10 biotransformation half-life (days)
64 | Brc1c(Br)c(Br)c(Br)c(Br)c1Br | 3 | 0.43
65 | COc1cc(Cl)c(Cl)c(Cl)c1Cl | 3.67 | –
66 | COP(=S)(OC)Oc1ccc(S(C)(=O)=O)c(C)c1 | 0.51 | -0.03
67 | Brc1cc(Br)c(Oc2c(Br)c(Br)c(Br)c(Br)c2Br)c(Br)c1Br | 5.75 | –
68 | Oc1c(Cl)cc(Cl)c(Cl)c1Cc1c(O)c(Cl)cc(Cl)c1Cl | 2.07 | –
69 | CC(CCl)OP(=O)(OC(C)CCl)OC(C)CCl (configuration not stated) | 0.9 | -1.31
